Data on 22 compounds can be found in ChEMBL document CHEMBL1909637, “Structure-activity relationship and enzyme kinetic studies on 4-aryl-1H-1,2,3-triazoles as indoleamine 2,3-dioxygenase (IDO) inhibitors” (Eur J Med Chem, 2011).

SMILES strings stand for the structures. Active and inactive are the calls of the source. No cut-off for these calls is given here.

Assay [1] deals with T1, Indoleamine 2,3-dioxygenase 1 (Homo sapiens, UniProt P14902). The assay is described as follows: Inhibition of human recombinant indoleamine-2,3-dioxygenase expressed in Escherichia coli BL21 using L-tryptophan as substrate after 30 mins by microplate reader analysis.
Target sequence in this assay (P14902 whole entry): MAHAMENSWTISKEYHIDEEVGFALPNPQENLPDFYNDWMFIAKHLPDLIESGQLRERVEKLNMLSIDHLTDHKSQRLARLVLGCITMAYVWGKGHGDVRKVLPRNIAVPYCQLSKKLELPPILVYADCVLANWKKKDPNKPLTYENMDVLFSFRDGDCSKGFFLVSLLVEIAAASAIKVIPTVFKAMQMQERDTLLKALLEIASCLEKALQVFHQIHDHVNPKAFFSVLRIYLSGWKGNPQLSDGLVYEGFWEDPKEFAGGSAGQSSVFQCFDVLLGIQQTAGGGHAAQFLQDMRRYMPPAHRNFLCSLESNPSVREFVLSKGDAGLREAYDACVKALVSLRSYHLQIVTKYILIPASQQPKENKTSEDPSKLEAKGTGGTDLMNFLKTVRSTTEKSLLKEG
Assay [2] concerns T-cell. The assay is described as follows: Induction of BALB/c mouse LLC-stimulated T cell proliferation after 4 days by WST-1 method. The format is functional, cell-based.
Assay [3] deals with T1, Indoleamine 2,3-dioxygenase 1. The assay can be described thus: Reversal inhibition of human recombinant indoleamine-2,3-dioxygenase expressed in Escherichia coli BL21 using L-tryptophan as substrate by Dixon plot analysis.
Target sequence in this assay (P14902 whole entry, looked up): as the sequence (P14902 whole entry) above
Assay [4] has the same target. The assay can be described thus: Ratio of IC50 for human recombinant indoleamine-2,3-dioxygenase expressed in Escherichia coli BL21 to IC50 for indoleamine-2,3-dioxygenase in human HEK293 cells.
Target sequence in this assay (P14902 whole entry, looked up): as the sequence (P14902 whole entry) above
For assay [5], the system named is T-cell. The assay is described as follows: Ratio of 1-methyl tryptophan to compound for induction of BALB/c mouse LLC-stimulated T cell proliferation. The class given is functional.
Assay [6] concerns the target T1, Indoleamine 2,3-dioxygenase 1. The assay can be described thus: Uncompetitive inhibition of human recombinant indoleamine-2,3-dioxygenase expressed in Escherichia coli BL21 using L-tryptophan as substrate by Dixon plot analysis.
Target sequence in this assay (P14902 whole entry): as above
Assay [7] shares this target. The assay is described as follows: Inhibition of indoleamine-2,3-dioxygenase in human HEK293 cells assessed as N-formylkynurenine level after 5 hrs by spectrophotometric analysis. The format is cell-based.
Target sequence in this assay (P14902 whole entry): as above

Take `Ic1nn[nH]c1-c1ccccc1`: the IC50 in assay [1] (read-out: IC50) came to 1370 µM.

Turning to `Cc1ccc(-c2[nH]nnc2Br)cc1`, the half-maximal inhibitory concentration (IC50) in assay [1] (read-out: IC50) stood at 1030 µM.

In the case of `CCOC(=O)c1cn(-c2ccc(Cl)cc2)nn1`, the concentration for half-maximal inhibition (IC50) in assay [1] (read-out: IC50) stood at 2000 µM.

On to `Clc1nn[nH]c1-c1ccccc1`, for which the IC50 result in assay [1] was “Not Active”.

In the case of `Clc1ccc(-c2c[nH]nn2)cc1`, the half-inhibitory concentration (IC50) in assay [1] (read-out: IC50) was found to be 817 µM.

Regarding `Fc1ccc(-c2c[nH]nn2)cc1`, in assay [1] (read-out: IC50), the IC50 was found to be 580 µM.

Regarding `c1ccc(-c2cnn[nH]2)cc1`, in the assay with T-cell [2], the Activity result is “Dose-dependent effect”. The inhibition result in assay [3] is “Active”.

With `COc1ccc(-c2c[nH]nn2)cc1`, the IC50 in assay [1] (read-out: IC50) came out at 6000 µM.

On to `Brc1ccc(-c2nn[nH]n2)cc1`, for which the IC50 result in assay [1] is on record as “Not Active”.

As to `COC(=O)c1ccc(-c2cnn[nH]2)cc1`, the half-inhibitory concentration (IC50) result in assay [1] is “Not Active”.

As to `Clc1ccccc1-c1cnn[nH]1`, the Activity result in the assay with T-cell [2] was “Dose-dependent effect”. In addition, the Ratio IC50 in assay [4] turned out to be 3. Moreover, the Ratio in the assay on T-cell [5] is given as 2. The inhibition result in assay [3] was “Active”.

With `On1nnc2ccccc21`, in assay [1], the concentration for half-maximal inhibition (IC50) entry is recorded as “Not Active”.

As to `c1ccc2[nH]nnc2c1` [BENZOTRIAZOLE], in assay [1] (read-out: IC50), the 50% inhibitory concentration (IC50) stood at 2570 µM.

`Brc1nn[nH]c1-c1ccccc1`: in assay [1], the IC50 entry is reported as “Not Active”.

As for `Brc1ccc(-c2c[nH]nn2)cc1`, the IC50 in assay [1] (read-out: IC50) is 1260 µM.

`O=[N+]([O-])c1ccc(-c2nn[nH]c2[N+](=O)[O-])cc1`: the concentration for half-maximal inhibition (IC50) in assay [1] (read-out: IC50) was found to be 533 µM.

`Brc1ccccc1-c1c[nH]nn1`: the inhibition constant (Ki) in assay [6] worked out at 18 µM. For the same compound, the IC50 in assay [1] (read-out: IC50) was 148 µM; in assay [7], 31.6 µM.

With `COc1ccccc1-c1c[nH]nn1`, in assay [1] (read-out: IC50), the IC50 turned out to be 1030 µM.

Take `Clc1ccccc1-c1c[nH]nn1`: in assay [6], the inhibition constant Ki stood at 14.5 µM. Further, the half-inhibitory concentration (IC50) in assay [1] (read-out: IC50) was 86 µM; in assay [7], 19.3 µM.

`Brc1ccccc1-c1cnn[nH]1`: the Activity entry in the assay on T-cell [2] is “Dose-dependent effect”. Besides, in assay [4], the Ratio IC50 came out at 3. Moreover, the inhibition result in assay [3] was “Active”.

Take `Cc1ccc(-c2c[nH]nn2)cc1`: the concentration for half-maximal inhibition (IC50) result in assay [1] is “Not Active”.

For `c1cncc(-c2c[nH]nn2)c1`, the IC50 in assay [1] (read-out: IC50) worked out at 708 µM.
